This passage reports IC50 results from US8420695B2, “Inhibitors of janus kinases” (Merck Sharp & Dohme Corp., priority 2008, dated 2013).

As a reminder, the IC50 is the point on the concentration scale where inhibition reaches its midpoint.

The target in this experiment is T1, recombinant JAK2 (JAK2 JH1 domain) (Homo sapiens, UniProt O60674).
T1 construct: 50 nM JAK2 JH1 domain (Upstate); purchased Upstate
T1 sequence (O60674 849-1124 limits assumed): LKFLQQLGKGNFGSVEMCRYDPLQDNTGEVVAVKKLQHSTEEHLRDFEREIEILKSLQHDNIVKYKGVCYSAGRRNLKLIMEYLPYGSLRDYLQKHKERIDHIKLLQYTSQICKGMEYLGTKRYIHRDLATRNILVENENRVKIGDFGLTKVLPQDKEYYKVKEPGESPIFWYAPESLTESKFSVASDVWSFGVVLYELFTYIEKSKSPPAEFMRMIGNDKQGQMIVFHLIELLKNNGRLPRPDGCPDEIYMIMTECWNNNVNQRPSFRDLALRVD
Nature of the experiment: JAK2 Kinase Activity Inhibition Assay and Determination of IC50 (HTRF). The format is biochemical. The note with it: 50 nM JAK2 JH1 domain, 15 μM MgATP, 80 min at room temperature. As for the experimental part:
JAK2 Kinase Activity Inhibition Assay and Determination of IC50
The kinase activity was measured using a modified version of the homogeneous time-resolved tyrosine kinase assay described in Park et al. Anal. Biochem. 269, 94-104 (1999).
IC50 was obtained by fitting the observed relationship between compound/inhibitor concentration and HTRF signal with a 4-parameter logistic equation.
Consider `CS(=O)(=O)c1ccc(Nc2sc(-c3ccc(Cl)cc3)cc2C(N)=O)cc1` [Example 2, 5-(4-chlorophenyl)-2-{[4-(methylsulfonyl)-phenyl]amino}thio-phene-3-carboxamide], for which the IC50 is 220 nM.

With `CC(C)(O)c1cc(F)c(-c2cc(C(N)=O)c(Nc3ccc(CN4CCS(=O)(=O)CC4)cc3)s2)c(F)c1` [Example 25, 5-[2,6-difluoro-4-(1-hydroxy-1-methylethyl)phenyl]-2-({4-[(1,1-dioxidothiomorpholin-4-yl)methyl]phenyl}amino)thiophene-3-carboxamide], the 50% inhibitory concentration (IC50) amounted to 26 nM.

As for `CC(C)(O)c1cc(F)c(-c2cc(C(N)=O)c(Nc3ccc(C(=O)N4CCOCC4)cc3)s2)c(F)c1` [Example 14, 5-[2,6-difluoro-4-(1-hydroxy-1-methylethyl)phenyl]-2-{[4-(morpholin-4-ylcarbonyl)phenyl]amino}thiophene-3-carboxamide], the IC50 is 21 nM.

Turning to `CC(=O)c1ccc(Nc2sc(-c3c(F)cc(C(C)(C)O)cc3F)cc2C(N)=O)cc1` [Example 11, 2-[(4-acetylphenyl)amino]-5-[2,6-difluoro-4-(1-hydroxy-1-methylethyl)phenyl]thiophene-3-carboxamide], the IC50 was found to be 110 nM.

On to `CC(C)(O)c1cc(F)c(-c2cc(C(N)=O)c(Nc3ccc(NS(C)(=O)=O)cc3)s2)c(F)c1` [Example 31, 5-[2,6-difluoro-4-(1-hydroxy-1-methylethyl)phenyl]-2-({4-[(methylsulfonyl)amino]phenyl}amino)thiophene-3-carboxamide], for which the IC50 was found to be 56 nM.

Take `CC(C)(O)c1cc(F)c(-c2cc(C(N)=O)c(Nc3ccc(S(=O)(=O)N4CCOCC4)cc3)s2)c(F)c1` [Example 28, 5-[2,6-difluoro-4-(1-hydroxy-1-methylethyl)phenyl]-2-{[4-(morpholin-4-ylsulfonyl)phenyl]amino}thiophene-3-carboxamide]: the IC50 was 56 nM.

For the molecule `CC(C)(O)c1cc(F)c(-c2cc(C(N)=O)c(Nc3ccncc3)s2)c(F)c1` [Example 6, 5-[2,6-difluoro-4-(1-hydroxy-1-methylethyl)-phenyl]-2-(pyridin-4-ylamino)thio-phene-3-carboxamide], the IC50 was 120 nM.

In the case of `Cc1noc(-c2ccc(Nc3sc(-c4c(F)cc(C(C)(C)O)cc4F)cc3C(N)=O)cc2)n1` [Example 9, 5-[2,6-difluoro-4-(1-hydroxy-1-methylethyl)-phenyl]-2-{[4-(3-methyl-1,2,4-oxadiazol-5-yl)phenyl]amino} thiophene-3-carboxamide], the IC50 was determined as 1400 nM.

For `NC(=O)c1cc(-c2ccccc2)sc1Nc1ccccc1` [Example 17, 2-Anilino-5-phenylthiophene-3-carboxamide], the IC50 is 1000 nM.

In the case of `CC(C)(O)c1cc(F)c(-c2cc(C(N)=O)c(Nc3ccc(S(C)(=O)=O)cc3)s2)c(F)c1` [Example 1, 5-[2,6-difluoro-4-(1-hydroxy-1-methylethyl)phenyl]-2-{[4-(methylsulfonyl)phenyl]amino}thiophene-3-carboxamide], the concentration for half-maximal inhibition (IC50) worked out at 47 nM.

On to `CC(C)(O)c1cc(F)c(-c2cc(C(N)=O)c(Nc3ccc(CN4CCOCC4)cc3)s2)c(F)c1` [Example 23, 5-[2,6-difluoro-4-(1-hydroxy-1-methylethyl)-phenyl]-2-{[4-(morpholin-4-ylmethyl)-phenyl]amino}-thiophene-3-carboxamide], for which the IC50 is 42 nM.

Consider `NC(=O)c1cc(-c2ccccc2)sc1Nc1ccncc1` [Example 20, 5-Phenyl-2-(pyridin-4-ylamino)-thiophene-3-carboxamide], for which the IC50 was found to be 180 nM.

For `CC(C)(O)c1ccc(Nc2sc(-c3c(F)cc(C(C)(C)O)cc3F)cc2C(N)=O)cc1` [Example 12, 5-[2,6-difluoro-4-(1-hydroxy-1-methylethyl)phenyl]-2-{[4-(1-hydroxy-1-methylethyl)phenyl]amino}thiophene-3-carboxamide], the IC50 stood at 29 nM.

Turning to `CC(C)(O)c1cc(F)c(-c2cc(C(N)=O)c(Nc3ccccc3)s2)c(F)c1` [Example 21, 2-anilino-5-[2,6-difluoro-4-(1-hydroxy-1-methylethyl)phenyl]thiophene-3-carboxamide], the IC50 was 490 nM.

Take `CN(C)S(=O)(=O)c1ccc(Nc2sc(-c3c(F)cc(C(C)(C)O)cc3F)cc2C(N)=O)cc1` [Example 29, 5-[2,6-difluoro-4-(1-hydroxy-1-methylethyl)-phenyl]-2-({4-[(dimethylamino)sulfonyl]phenyl}-amino)-thiophene-3-carboxamide]: the IC50 was 44 nM.

With `CC(C)(O)c1cc(F)c(-c2cc(C(N)=O)c(Nc3ccc(CO)cc3)s2)c(F)c1` [Example 22, 5-[2,6-difluoro-4-(1-hydroxy-1-methylethyl)-phenyl]-2-{[4-(hydroxymethyl)-phenyl]amino}-thiophene-3-carboxamide], the IC50 was determined as 170 nM.

Consider `CC(C)(O)c1cc(F)c(-c2cc(C(N)=O)c(Nc3ccc(C=O)cc3)s2)c(F)c1` [Example 24, 5-[2,6-difluoro-4-(1-hydroxy-1-methylethyl)phenyl]-2-[(4-formylphenyl)amino]thiophene-3-carboxamide], for which the IC50 was found to be 410 nM.

Consider `CC(C)(O)c1ccc(-c2cc(C(N)=O)c(Nc3cccnc3)s2)cc1` [Example 10, 5-(4-(1-Hydroxy-1-methylethyl)phenyl)-2-(3-pyridinylamino)-3-thiophenecarboxamide], for which the IC50 came to 220 nM.

Consider `CN(C)C(=O)c1ccc(Nc2sc(-c3c(F)cc(C(C)(C)O)cc3F)cc2C(N)=O)cc1` [Example 5, 5-[2,6-difluoro-4-(1-hydroxy-1-methylethyl)-phenyl]-2-({4-[(dimethylamino)carbonyl]phenyl}amino)thiophene-3-carboxamide], for which the concentration for half-maximal inhibition (IC50) came to 21 nM.

For the molecule `CN(C)Cc1ccc(Nc2sc(-c3c(F)cc(C(C)(C)O)cc3F)cc2C(N)=O)cc1` [Example 26, 5-[2,6-difluoro-4-(1-hydroxy-1-methylethyl)-phenyl]-2-({4-[(dimethylamino)methyl]phenyl}-amino)-thiophene-3-carboxamide], the IC50 turned out to be 22 nM.

Consider `CNC(=O)c1ccc(Nc2sc(-c3c(F)cc(C(C)(C)O)cc3F)cc2C(N)=O)cc1` [Example 4, 5-[2,6-difluoro-4-(1-hydroxy-1-methylethyl)-phenyl]-2-({4-[(methylamino)-carbonyl]phenyl}-amino)thiophene-3-carboxamide], for which the IC50 is 32 nM.

On to `NC(=O)c1cc(-c2ccccc2)sc1Nc1cccnc1` [Example 18, 5-Phenyl-2-(pyridin-3-ylamino)-thiophene-3-carboxamide], for which the IC50 was 320 nM.

As for `NC(=O)c1cc(-c2ccccc2)sc1Nc1cncnc1` [Example 19, 5-Phenyl-2-(pyrimidin-5-ylamino)-thiophene-3-carboxamide], the IC50 was determined as 2600 nM.

On to `CC(C)(O)c1cc(F)c(-c2cc(C(N)=O)c(Nc3ccnc(CO)c3)s2)c(F)c1` [Example 7, 5-[2,6-difluoro-4-(1-hydroxy-1-methylethyl)-phenyl]-2-{[2-(hydroxymethyl)-pyridin-4-yl]amino}thio-phene-3-carboxamide], for which the IC50 was determined as 75 nM.
